PMC7554048, “FBI-1 enhanced the resistance of triple-negative breast cancer cells to chemotherapeutic agents via the miR-30c/PXR axis” (Cell Death & Disease, 2020)
Read-outs that look alike come from different tables or passages of the source.

Experiments:
[1] = test system: TNBC PDC No. 3; assay: In vivo antitumor effect of olaparib on subcutaneous TNBC tumors; conditions: nude mice, oral administration once every two days, 4–5 weeks
Description: Female nude mice, 4–6 weeks old, were purchased from Beijing Si-Bei-Fu Corporation, China. The animal experiments were approved by the Institutional Animal Care and Use Committee of the Chinese PLA General Hospital, China. All animal experiments (n = 10 for each group; animals were randomly divided into the groups) were performed according to the UK Animals (Scientific Procedures) Act, 1986, and associated guidelines. TNBC cells transfected with plasmids were treated with olaparib via oral administration once every two days. After 4–5 weeks’ treatment, the tumor tissues of the mice were harvested. The tumor volumes or tumor weights were determined following the methods described by Jia et al.[37]. The inhibition rates of olaparib were calculated by the tumor volumes or tumor weights.

[2] = test system: HCC-1937; assay: Cell-survival SRB assay; type: cell-based; conditions: Homo sapiens, HCC1937, 48 h, read-out: The IC50 values of olaparib
Description: (§1) The TNBC cells were treated with the indicated concentration of agents (10, 3, 1, 0.3, 0.1, 0.03, or 0.01 μmol/L for olaparib) for 48 h. Then, cells were analyzed by the Sulforhodamine B (SRB) assay, following the methods provided by and Li et al.[23] and Guan et al.[24]. The relative survival cells were determined by the O.D. values (optical density values) at 510 nm. […] The IC50 values of agents were calculated from the inhibition rates[23],[24]. The colony formation experiments were performed following the method desicripted by Fang et al.[5]. TNBC cells were transfected with the plasmids and treated with solvent control or the olaparib. The cells were analyzed by the colony-formation.

[3] = test system: MDA-MB-436; assay: Cell-survival SRB assay; type: cell-based; conditions: Homo sapiens, MDA-MB-436, 48 h, read-out: The IC50 values of olaparib
Description: as §1

[4] = test system: PDC No. 6; assay: Cell-survival SRB assay; type: cell-based; conditions: Homo sapiens, 48 h, read-out: IC50 values of olparib
Description: as §1

[5] = test system: PDC No. 9; assay: Cell-survival SRB assay; type: cell-based; conditions: Homo sapiens, 48 h, read-out: IC50 values of olparib
Description: as §1

[6] = test system: PDC No. 2; assay: Cell-survival SRB assay; type: cell-based; conditions: Homo sapiens, 48 h, read-out: IC50 values of olparib
Description: as §1

[7] = test system: PDC No. 7; assay: Cell-survival SRB assay; type: cell-based; conditions: Homo sapiens, 48 h, read-out: IC50 values of olparib
Description: as §1

[8] = test system: PDC No. 3; assay: Cell-survival SRB assay; type: cell-based; conditions: Homo sapiens, 48 h, read-out: IC50 values of olparib
Description: as §1

[9] = Olaparib sustained in cultured TNBC cells, LC-MS/MS (half-life); type: in vitro ADME, human; conditions: human, read-out: half life values of olaparib (t1/2) (converted)
Description: TNBC cells transfected with plasmids were used for the pharmacokinetic experiments to examine the amount of olaparib sustained in the cells. For the cell-based experiments, cells were treated with 1 μmol/L concentration of olaparib for 12 h[33]. Then, cells were harvested at indicated time-points. For the animal experiments, TNBC cells were injected into the subcutaneous position to form subcutaneous tumor tissues. After 2–3 weeks’ growth, when the tumor volumes reached 1500–2000 mm^3, the solution of olaparib was injected into the subcutaneous tumors. Then, the tumor tissues were harvested at indicated times[34],[35]. The olaparib in cells or tumor tissues was extracted by acetonitrile (ACN), and the amount of olaparib sustained in cells or tumor tissues at each time point was determined by liquid chromatography–mass spectrometry/mass spectrometry (LC-MS/MS), following the methods established by Krens et al.[36]. The sustaining rates of olaparib were calculated as (the amount of olaparib at each time)/(the amount of olaparib at 0-time) × 100%. The sustaining curves or the half-time life (t1/2) of olaparib was obtained by the sustained rates of olaparib.

Compound: O=C(c1cc(Cc2n[nH]c(=O)c3ccccc23)ccc1F)N1CCN(C(=O)C2CC2)CC1 [olaparib]
- subcutaneous growth of TNBC cells [1]: inhibited the subcutaneous growth of TNBC cells
- IC50 ([2]; HCC-1937, FBI-1 + miR-30c, 48 h): 240 ± 40 nM
- IC50 ([2]; HCC-1937, FBI-1, 48 h): 3700 ± 380 nM
- IC50 ([2]; HCC-1937, control, 48 h): 900 ± 330 nM
- IC50 ([2]; HCC-1937, miR-30c + PXR^Mut, 48 h): 4900 ± 820 nM
- IC50 ([2]; HCC-1937, miR-30c, 48 h): 100 ± 50 nM
- IC50 ([2]; HCC-1937, siFBI-1 + miR-30c inhibitor, 48 h): 2210 ± 510 nM
- IC50 ([2]; HCC-1937, siFBI-1, 48 h): 130 ± 80 nM
- IC50 ([3]; MDA-MB-436, FBI-1 + miR-30c, 48 h): 210 ± 20 nM
- IC50 ([3]; MDA-MB-436, FBI-1, 48 h): 2460 ± 790 nM
- IC50 ([3]; MDA-MB-436, control, 48 h): 790 ± 280 nM
- IC50 ([3]; MDA-MB-436, miR-30c + PXR^Mut, 48 h): 2750 ± 400 nM
- IC50 ([3]; MDA-MB-436, miR-30c, 48 h): 100 ± 30 nM
- IC50 ([3]; MDA-MB-436, siFBI-1 + miR-30c inhibitor, 48 h): 1820 ± 310 nM
- IC50 ([3]; MDA-MB-436, siFBI-1, 48 h): 140 ± 10 nM
- IC50 ([4]; PDC No. 6, control): 1740 ± 820 nM
- IC50 ([4]; PDC No. 6, siFBI-1, 48 h): 250 ± 40 nM
- IC50 ([5]; PDC No. 9, FBI-1, 48 h): 9880 ± 650 nM
- IC50 ([5]; PDC No. 9, control): 850 ± 330 nM
- IC50 ([5]; PDC No. 9, ketoconazole + FBI-1, 48 h): 1640 ± 520 nM
- IC50 ([6]; PDC No. 2, control): 1320 ± 250 nM
- IC50 ([6]; PDC No. 2, siFBI-1, 48 h): 220 ± 20 nM
- IC50 ([7]; PDC No. 7, control): 2040 ± 770 nM
- IC50 ([7]; PDC No. 7, siFBI-1, 48 h): 330 ± 100 nM
- IC50 ([8]; PDC No. 3, FBI-1, 48 h): 8750 ± 1000 nM
- IC50 ([8]; PDC No. 3, control): 940 ± 100 nM
- IC50 ([8]; PDC No. 3, ketoconazole + FBI-1, 48 h): 630 ± 110 nM
- IC50 ([8]; PDC No. 3, siFBI-1, 48 h): 100 ± 50 nM
- half-life at 1 μmol/L ([9]; HCC-1937, FBI-1 + miR-30c): 57.3 ± 8.91 h
- half-life at 1 μmol/L ([9]; HCC-1937 TNBC cells, HCC-1937, FBI-1): 9.44 ± 0.57 h
- half-life at 1 μmol/L ([9]; HCC-1937 TNBC cells, HCC-1937, control): 31.2 ± 4.67 h
- half-life at 1 μmol/L ([9]; HCC-1937 TNBC cells, HCC-1937, miR-30c + PXR^Mut): 8.55 ± 0.3 h
- half-life at 1 μmol/L ([9]; HCC-1937 TNBC cells, HCC-1937, miR-30c): 68.3 ± 13.4 h
- half-life at 1 μmol/L ([9]; HCC-1937 TNBC cells, HCC-1937, siFBI-1 + miR-30c inhibitor): 18.6 ± 4.08 h
- half-life at 1 μmol/L ([9]; HCC-1937 TNBC cells, HCC-1937, siFBI-1): 50.2 ± 5.62 h
